In patent US20030229108A1, “Barbituric acid analogs as therapeutic agents” (priority 2000, published 2003):

Legend:
[1] = target: T1, interaction between HIF-1α and p300 (His-HIF-1α / GST-p300) (Homo sapiens, UniProt Q09472+Q16665); test: Primary assay: fluorescence-based (DELFIA) screening assay for inhibition of the HIF-1α/p300 interaction; assay type: binding
T1 construct: corresponding to the C-terminal 390 amino acids into vector pET28a; A plasmid containing the N-terminal 595 amino acids of human p300; made in house; host or cells: E. coli
T1 sequence (Q16665 437-826 limits assumed): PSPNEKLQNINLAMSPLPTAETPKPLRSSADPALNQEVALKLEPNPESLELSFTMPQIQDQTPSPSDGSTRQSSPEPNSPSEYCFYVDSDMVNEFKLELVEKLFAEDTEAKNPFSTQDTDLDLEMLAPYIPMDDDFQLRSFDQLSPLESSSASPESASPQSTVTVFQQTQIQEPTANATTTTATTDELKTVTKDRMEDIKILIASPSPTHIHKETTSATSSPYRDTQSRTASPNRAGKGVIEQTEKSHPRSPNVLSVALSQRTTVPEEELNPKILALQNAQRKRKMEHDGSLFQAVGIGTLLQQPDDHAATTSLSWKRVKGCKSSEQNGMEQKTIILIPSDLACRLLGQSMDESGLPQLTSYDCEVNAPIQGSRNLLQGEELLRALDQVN
T1 sequence (Q09472 1-595 limits assumed): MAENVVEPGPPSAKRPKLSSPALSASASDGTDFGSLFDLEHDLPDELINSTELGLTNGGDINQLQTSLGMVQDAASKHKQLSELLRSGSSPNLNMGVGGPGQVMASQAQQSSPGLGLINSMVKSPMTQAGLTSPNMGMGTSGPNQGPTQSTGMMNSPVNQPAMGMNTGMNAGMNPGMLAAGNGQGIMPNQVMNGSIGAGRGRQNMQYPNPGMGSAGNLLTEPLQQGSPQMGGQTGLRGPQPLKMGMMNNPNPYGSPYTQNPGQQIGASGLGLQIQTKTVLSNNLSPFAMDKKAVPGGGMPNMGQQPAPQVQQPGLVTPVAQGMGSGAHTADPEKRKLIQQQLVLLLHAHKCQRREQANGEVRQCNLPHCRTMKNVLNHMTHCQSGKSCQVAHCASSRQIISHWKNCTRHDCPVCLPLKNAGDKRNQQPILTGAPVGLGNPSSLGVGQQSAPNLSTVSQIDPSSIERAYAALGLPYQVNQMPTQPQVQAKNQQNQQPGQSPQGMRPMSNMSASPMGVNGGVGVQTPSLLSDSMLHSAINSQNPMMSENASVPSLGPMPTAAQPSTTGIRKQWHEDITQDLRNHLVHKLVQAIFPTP
Protocol: Candidate compounds were assessed for their ability to inhibit the interaction between HIF-1α and p300 using a high throughput fluorescence-based screening assay (DELFIA) as follows.
A plasmid expressing His-HIF-1α fusion protein was constructed by PCR, by amplifying and subcloning a fragment of the human HIF-1α cDNA (NCBI GenBank, accession number AH006957) corresponding to the C-terminal 390 amino acids into vector pET28a (Novagen®, Madison, Wis., USA). A plasmid containing the N-terminal 595 amino acids of human p300 (NCBI GenBank, accession number U01877) inserted into vector pGEX2T (Pharmacia®, Little Chalfont, Bucks, UK) was used for the production of GST-p300 fusion protein. The recombinant proteins were produced in E. coli. His-HIF-1α was purified using Ni-NTA agarose beads, according to manufacture's method (Qiagen®, Crawley, West Sussex, UK). GST-p300 was purified using Glutathione-sepharose beads (Amersham Pharmacia®, Little Chalfont, Bucks, UK) according to manufacturer's instructions. A titration of every batch of p300 was carried out in order to determine the optimum dilution of the protein to obtain at least a 10:1 ratio signal to noise in the binding assay.
The assay was performed in 96-well Polysorb plates (Nalge Nunc International®, Rochester, N.Y., USA) as follows. Plates were coated with His-HIF-1α at 50 ng/well in […] and incubated overnight at 4° C. The plates were then washed 3 times with deionized water and blocked with 100 μL/well 3% BSA in PBS for 3 hours at 4° C. After washing 3 times as before, GST-p300 was added at the appropriate dilution (1:800 in this screening) in binding buffer (50 mM HEPES pH 7.5, 50 mM NaCl, 0.1% BSA, 0.5 mM DTT). The reaction was incubated at room temperature for 1 hour. Plates were washed 3 times and anti-GST Europium-conjugated antibody (from Wallac®, Turku, Finland) was added at 50 ng/well in […]. After 45 minutes incubation, plates were washed 3 times as before. Then, 100 μL/well enhancement solution (from Wallac®, Catalog No. 1244-105) was added and allowed to react for 15 minutes at room temperature. Plates were read on a Victor 2 plate reader (from Wallac®).

VEGF = test: VEGF-ELISA (Quantikine sandwich immunoassay of VEGF in cell supernatant); assay type: cell-based; conditions: Homo sapiens, 17 h; read-out: Secondary Assay VEGF-ELISA IC50
Protocol: This assay employs the quantitative sandwich enzyme immunoassay technique. A monoclonal antibody (R&D Systems®, Abingdon, Oxon, UK) specific for VEGF was pre-coated onto a microplate. To this was added a sample containing VEGF. After washing, a second anti-VEGF antibody coupled to horseradish peroxidase was added. […] Typically, cells were plated at a concentration of 2.5×10^4 cells/well, and incubated with either 100 μM desferroxamine or at 0.1% O2 for 17 hours at 37° C. 200 μL of supernatant were removed and the VEGF quantitated using the Quantikine® ELISA kit from R&D Systems® (catalog # DVEOO) exactly according to the manufacturer's instructions. The assay is calibrated each time using recombinant human VEGF.

[2] = tested on: VEGF promoter (VEGF-luciferase reporter) in Hepatoma 3B (hep3B) cells; test: VEGF-luciferase cell-based reporter assay, desferoxamine-induced, Hepatoma 3B (hep3B) cells; conditions: 15 h, read-out: Secondary Assay VEGF-luciferase IC50
Excerpt: This cell-based reporter assay involves the use of a luciferase reporter gene under the direct control of the VEGF promoter. Induction of HIF using desferoxamine leads to the transcription of luciferase through activation of the VEGF (Vascular Endothelial Growth Factor) promoter, which in turn leads to an increase in luciferase activity, which can be measured using most commercially available luciferase assay kits. Molecules that disrupt the HIF complex cause inhibition of HIF-dependent luciferase activation and lead to a reduction in luciferase activity. This assay allows the activity of the compounds to be assessed against the VEGF promoter, which is essential for VEGF production and subsequent angiogenesis.
Hepatoma 3B (hep3B) cells (ATCC Ref. No. HB-8064) were plated in 24-well plates at 2×10^4/well in 500 μL DMEM/10% FCS, and were transfected the following day using Fugene 6 (Roche Biochemicals®, Lewes, E. Sussex, UK). Transfection mixtures per well contained 6 μL 10% Fugene, 200 ng VEGF-luciferase reporter (rat VEGF promoter, NCBI GenBank, accession number U22373, Levy et al., 1995) and 2 ng TK-renilla (Promega®, Madison, Wis., USA) (for transfection efficiency control). Transfection was performed as recommended by manufacturer. Compounds were added the following day. After 1 hour incubation at 37° C., desferoxamine (Sigma®, Dorset, UK) was added at 100 μM to induce HIF activity. Duplicate wells without desferoxamine were run in parallel. Cells were harvested 15 hours later, and luciferase activity was measured using Dual Luciferase Assay System (Promega®, see also Technical Manual, Part #TM040, Instructions for Use of Products E1910 and E1960, revised May/1999).

O=C1C(=Cc2ccc(Cl)cc2)C(=O)N(c2ccccc2)C(=S)N1c1ccccc1 [PX089645, 5-(4-Chloro-benzylidene)-1,3-diphenyl-2-thioxo-dihydro-pyrimidine-4,6-dione]
IC50 [1]: 80 µM
IC50 (VEGF): 200 µM

O=C1NC(=S)NC(=O)C1=Cc1cn(Cc2ccccc2)c2ccccc12 [PX106341]
IC50 [2]: 57.5 µM
IC50 [1]: 49 µM
IC50 (VEGF): 20 µM

Cc1cc(C=C2C(=O)NC(=S)NC2=O)c(C)n1-c1ccccc1 [PX106151]
IC50 [2]: 40 µM
IC50 [1]: 160 µM
IC50 (VEGF): 75 µM

CCN1C(=O)/C(=C/C=C/c2ccco2)C(=O)NC1=S [PX106281]
IC50 [2]: 28 µM
IC50 [1]: 35 µM
IC50 (VEGF): 30 µM

O=C1NC(=S)NC(=O)C1=Cc1c[nH]c2ccccc12 [PX075276, 5-(1H-Indol-3-ylmethylene)-2-thioxo-dihydro-pyrimidine-4,6-dione]
IC50 [2]: 10.8 µM
IC50 [1]: 30 µM
IC50 (VEGF): 18.8 µM

O=C1NC(=O)C(=Cc2ccc([N+](=O)[O-])s2)C(=O)N1 [PX074037]
IC50 [2]: 35 µM
IC50 [1]: 100 µM
IC50 (VEGF): 30 µM

O=C1NC(=S)NC(=O)C1=Cc1ccc([N+](=O)[O-])s1 [PX074038, 5-(5-Nitro-thiophen-2-ylmethylene)-2-thioxo-dihydro-pyrimidine-4,6-dione]
IC50 [2]: 50 µM
IC50 [1]: 20 µM
melting point: 285 °C (dec.)

O=C1NC(=S)NC(=O)C1=Cc1cc(Br)cs1 [PX089648, 5-(4-Bromo-thiophen-2-ylmethylene)-2-thioxo-dihydro-pyrimidine-4,6-dione]
IC50 [2]: 30 µM
IC50 [1]: 45 µM
melting point: 230 °C (dec.)
IC50 (VEGF): 32.5 µM

CN(C)c1ccc(C=C2C(=O)NC(=S)NC2=O)cc1 [PX089631, 5-(4-dimethylamino-benzylidene)-2-thioxo-dihydro-pyrimidine-4,6-dione]
IC50 [2]: 16.3 µM
IC50 [1]: 25 µM
IC50 (VEGF): 27.5 µM

O=C1NC(=S)NC(=O)C1=Cc1ccc(Oc2ccccc2)cc1 [PX106021, 5-(4-Phenoxy-benzylidene)-2-thioxo-dihydro-pyrimidine-4,6-dione]
IC50 [2]: 100 µM
IC50 (VEGF): 80 µM

O=C1NC(=S)NC(=O)C1=Cc1cccc2ccccc12 [PX089635, 5-(Naphthalen-1-ylmethylene)-2-thioxo-dihydro-pyrimidine-4,6-dione]
IC50 [1]: 80 µM
melting point: 280 °C (dec.)

CN(CCC#N)c1ccc(C=C2C(=O)NC(=S)NC2=O)cc1 [PX089643]
IC50 [2]: 87.5 µM
IC50 [1]: 55 µM
IC50 (VEGF): 100 µM

O=C1NC(=S)NC(=O)C1=Cc1ccc(-c2cc(C(F)(F)F)cc(C(F)(F)F)c2)o1 [PX075367]
IC50 [2]: 50 µM
IC50 [1]: 45 µM
IC50 (VEGF): 75 µM

Cc1cc(C)cc(-n2c(C)cc(C=C3C(=O)NC(=S)NC3=O)c2C)c1 [PX106155]
IC50 [2]: 27.5 µM
IC50 [1]: 10 µM
IC50 (VEGF): 45 µM

O=C1NC(=S)NC(=O)C1=Cc1ccc[nH]1 [PX089639, 5-(1H-pyrrol-2-ylmethylene)-2-thioxo-dihydro-pyrimidine-4,6-dione]
IC50 [2]: 25 µM
IC50 [1]: 20 µM
melting point: 280 °C (dec.)
IC50 (VEGF): 50 µM

CCN(CC)c1ccc(C=C2C(=O)NC(=O)NC2=O)cc1 [P2083675]
IC50 [2]: 50 µM
IC50 [1]: 35 µM
IC50 (VEGF): 75 µM

Cc1cc(C)c(C=C2C(=O)NC(=S)NC2=O)[nH]1 [PX089624]
IC50 [2]: 12.5 µM
IC50 [1]: 45 µM
IC50 (VEGF): 6.2 µM
